Results published in ChEMBL document CHEMBL1201862, “PubChem BioAssay data set” (2004).
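A five-concentration, 48-hour dose response in 96-well plates underlies each endpoint, interpolated linearly between surrounding concentrations. The concentration for 50% growth inhibition is given as GI50.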 The source made the active and inactive calls. Cut-off read from the data, not from the text of the source: active = GI50 up to about 1.1 µM and inactive = higher.

What was measured:
Test in all cases: growth of human tumour cells (NCI), 48 h
[1] = test system: ACHN
[2] = test system: CCRF-CEM
[3] = test system: DLD-1
[4] = test system: HCT-116
[5] = test system: HL-60
[6] = test system: IGROV-1
[7] = test system: K562
[8] = test system: LXFL 529
[9] = test system: NCI-H460
[10] = test system: NCI-H522
[11] = test system: SF-295
[12] = test system: SF-539
[13] = test system: SNB-78
[14] = test system: SW-620
[15] = test system: TK-10
[16] = test system: U-251
[17] = test system: UACC-257
[18] = test system: UACC-62

SMILES	GI50 [1]	GI50 [2]	GI50 [3]	GI50 [4]	GI50 [5]	GI50 [6]	GI50 [7]	GI50 [8]	GI50 [9]	GI50 [10]	GI50 [11]	GI50 [12]	GI50 [13]	GI50 [14]	GI50 [15]	GI50 [16]	GI50 [17]	GI50 [18]
CNC(C)Cc1ccc(O)cc1 (centres undefined)	> 100 µM (inactive)	> 100 µM (inactive)	> 100 µM (inactive)	> 100 µM (inactive)	> 100 µM (inactive)	> 100 µM (inactive)	> 100 µM (inactive)	> 100 µM (inactive)	> 100 µM (inactive)	> 100 µM (inactive)	> 100 µM (inactive)	> 100 µM (inactive)	> 100 µM (inactive)	> 100 µM (inactive)	> 100 µM (inactive)	> 100 µM (inactive)	> 100 µM (inactive)	> 100 µM (inactive)
Oc1cccc2nc3cc(CN4CCOCC4)c(CN4CCOCC4)cc3nc12	47.8 µM (inactive)	44.9 µM (inactive)	61 µM (inactive)	52.2 µM (inactive)	33.3 µM (inactive)	> 100 µM (inactive)	34.3 µM (inactive)	48.1 µM (inactive)	54.3 µM (inactive)	30.9 µM (inactive)	45.8 µM (inactive)	38.3 µM (inactive)	> 100 µM (inactive)	57.3 µM (inactive)	> 100 µM (inactive)	33.6 µM (inactive)	> 100 µM (inactive)	40.2 µM (inactive)
Cc1nc(-c2nc([N+](=O)[O-])c([N+](=O)[O-])[nH]2)cs1	> 100 µM (inactive)	> 100 µM (inactive)	> 100 µM (inactive)	> 100 µM (inactive)	> 100 µM (inactive)	> 100 µM (inactive)	> 100 µM (inactive)	> 100 µM (inactive)	> 100 µM (inactive)	> 100 µM (inactive)	> 100 µM (inactive)	> 100 µM (inactive)	> 100 µM (inactive)	> 100 µM (inactive)	> 100 µM (inactive)	> 100 µM (inactive)	> 100 µM (inactive)	> 100 µM (inactive)
CC1NOC(=O)C1/N=N/c1ccccc1Cl (centres undefined)	27 µM (inactive)	40.9 µM (inactive)	39.4 µM (inactive)	37.2 µM (inactive)	20 µM (inactive)	73.1 µM (inactive)	40.7 µM (inactive)	45.5 µM (inactive)	45.1 µM (inactive)	17.4 µM (inactive)	74.1 µM (inactive)	24.5 µM (inactive)	52.5 µM (inactive)	> 100 µM (inactive)	90.4 µM (inactive)	42.4 µM (inactive)	17.8 µM (inactive)	31.1 µM (inactive)
COCC1N=C(c2ccc(OC)c(OCc3ccccc3)c2OC)O[C@H]1c1ccccc1 (some centres undefined)	12.9 µM (inactive)	15.3 µM (inactive)	20.6 µM (inactive)	11.9 µM (inactive)	15.2 µM (inactive)	32.4 µM (inactive)	12.3 µM (inactive)	14.8 µM (inactive)	11.1 µM (inactive)	20.8 µM (inactive)	25.6 µM (inactive)	17.4 µM (inactive)	29.1 µM (inactive)	34.8 µM (inactive)	35.2 µM (inactive)	18.1 µM (inactive)	–	15.8 µM (inactive)
COc1ccc(C)cc1C1CCC(=O)O1 (centres undefined)	> 100 µM (inactive)	> 100 µM (inactive)	> 100 µM (inactive)	> 100 µM (inactive)	> 100 µM (inactive)	> 100 µM (inactive)	> 100 µM (inactive)	> 100 µM (inactive)	> 100 µM (inactive)	> 100 µM (inactive)	> 100 µM (inactive)	> 100 µM (inactive)	> 100 µM (inactive)	> 100 µM (inactive)	> 100 µM (inactive)	> 100 µM (inactive)	> 100 µM (inactive)	> 100 µM (inactive)
O=C1c2cc3c(cc2[C@@H]2C(O)[C@H]4O[C@H]4C4CCN1C42)OCO3 (some centres undefined)	> 37.5 µM (inactive)	> 37.5 µM (inactive)	–	> 37.5 µM (inactive)	> 37.5 µM (inactive)	> 37.5 µM (inactive)	> 37.5 µM (inactive)	> 37.5 µM (inactive)	> 37.5 µM (inactive)	> 37.5 µM (inactive)	> 37.5 µM (inactive)	> 37.5 µM (inactive)	–	> 37.5 µM (inactive)	> 37.5 µM (inactive)	–	–	> 37.5 µM (inactive)
CN(NC1OC(CO)C(O)C(O)C1O)c1ccccc1 (centres undefined)	> 100 µM (inactive)	> 100 µM (inactive)	> 100 µM (inactive)	> 100 µM (inactive)	> 100 µM (inactive)	> 100 µM (inactive)	> 100 µM (inactive)	> 100 µM (inactive)	> 100 µM (inactive)	94.4 µM (inactive)	> 100 µM (inactive)	–	> 100 µM (inactive)	> 100 µM (inactive)	> 100 µM (inactive)	> 100 µM (inactive)	> 100 µM (inactive)	> 100 µM (inactive)
O=C1c2ccccc2C(=O)N1CCn1nc(-c2ccccc2)cc(-c2ccccc2)c1=O	34.7 µM (inactive)	23.2 µM (inactive)	> 100 µM (inactive)	66.8 µM (inactive)	8.51 µM (inactive)	74.8 µM (inactive)	18.2 µM (inactive)	52.2 µM (inactive)	26.2 µM (inactive)	18.6 µM (inactive)	56 µM (inactive)	> 100 µM (inactive)	> 100 µM (inactive)	> 100 µM (inactive)	–	71.1 µM (inactive)	> 100 µM (inactive)	51.2 µM (inactive)
O=C1C(=O)N(c2cc(Cl)ccc2Cl)C(=O)C(=O)C1c1nc2ccccc2o1	> 100 µM (inactive)	30.2 µM (inactive)	> 100 µM (inactive)	> 100 µM (inactive)	39.1 µM (inactive)	> 100 µM (inactive)	61.1 µM (inactive)	> 100 µM (inactive)	> 100 µM (inactive)	90.6 µM (inactive)	> 100 µM (inactive)	> 100 µM (inactive)	> 100 µM (inactive)	> 100 µM (inactive)	> 100 µM (inactive)	> 100 µM (inactive)	> 100 µM (inactive)	> 100 µM (inactive)
COCCOCCOCCOc1cccc2c1C(=O)c1cccc(OCCOCCOCCOC)c1C2=O	> 100 µM (inactive)	40.1 µM (inactive)	> 100 µM (inactive)	> 100 µM (inactive)	> 100 µM (inactive)	> 100 µM (inactive)	37.8 µM (inactive)	> 100 µM (inactive)	70.6 µM (inactive)	–	> 100 µM (inactive)	> 100 µM (inactive)	> 100 µM (inactive)	> 100 µM (inactive)	> 100 µM (inactive)	> 100 µM (inactive)	> 100 µM (inactive)	> 100 µM (inactive)
COc1cccc(-c2nccc3c(OCc4ccccc4)c(OC)c(OC)cc23)c1	54.6 µM (inactive)	5.68 µM (inactive)	7.74 µM (inactive)	7.57 µM (inactive)	4.25 µM (inactive)	> 100 µM (inactive)	4.91 µM (inactive)	5.74 µM (inactive)	–	> 100 µM (inactive)	> 100 µM (inactive)	> 100 µM (inactive)	63.1 µM (inactive)	> 100 µM (inactive)	> 100 µM (inactive)	6.46 µM (inactive)	> 100 µM (inactive)	> 100 µM (inactive)
C#C[C@H]1CCCCCC1O (some centres undefined)	> 100 µM (inactive)	59 µM (inactive)	> 100 µM (inactive)	> 100 µM (inactive)	36.1 µM (inactive)	> 100 µM (inactive)	> 100 µM (inactive)	96.8 µM (inactive)	> 100 µM (inactive)	> 100 µM (inactive)	> 100 µM (inactive)	> 100 µM (inactive)	> 100 µM (inactive)	23.3 µM (inactive)	> 100 µM (inactive)	> 100 µM (inactive)	> 100 µM (inactive)	> 100 µM (inactive)
CC(=O)NNc1nc(C)c(C(=O)NNC(=O)C(=O)Nc2ccc(Cl)cc2)s1	54.6 µM (inactive)	25.3 µM (inactive)	–	> 100 µM (inactive)	> 100 µM (inactive)	> 100 µM (inactive)	46.2 µM (inactive)	34.7 µM (inactive)	> 100 µM (inactive)	31.8 µM (inactive)	> 100 µM (inactive)	> 100 µM (inactive)	> 100 µM (inactive)	54.6 µM (inactive)	> 100 µM (inactive)	> 100 µM (inactive)	> 100 µM (inactive)	> 100 µM (inactive)
COc1cc([C@@H]2c3cc4c(cc3[C@@H](NC(=O)c3cccc(N)c3)C3COC(=O)[C@@H]32)OCO4)cc(OC)c1O (some centres undefined)	0.166 µM (active)	0.0802 µM (active)	7.03 µM (inactive)	2.28 µM (inactive)	0.233 µM (active)	6.05 µM (inactive)	2.11 µM (inactive)	13.1 µM (inactive)	< 0.01 µM (active)	–	0.262 µM (active)	0.284 µM (active)	3.92 µM (inactive)	0.391 µM (active)	3.31 µM (inactive)	0.242 µM (active)	10.7 µM (inactive)	0.619 µM (active)
Nc1ccc(/N=N/c2ccc(/C=C/c3ccc(/N=N/c4ccc(N)c5ccc(S(=O)(=O)O)cc45)cc3S(=O)(=O)O)c(S(=O)(=O)O)c2)c2cc(S(=O)(=O)O)ccc12	–	> 100 µM (inactive)	> 100 µM (inactive)	> 100 µM (inactive)	> 100 µM (inactive)	> 100 µM (inactive)	> 100 µM (inactive)	–	> 100 µM (inactive)	> 100 µM (inactive)	> 100 µM (inactive)	> 100 µM (inactive)	> 100 µM (inactive)	> 100 µM (inactive)	–	> 100 µM (inactive)	> 100 µM (inactive)	> 100 µM (inactive)
